# According to patent US6030997A, “Acid labile prodrugs” (priority 1998, dated 2000):
# Tests used:
# mice = details: i.v.; cited from earlier work
# kidney = details: rat, in vivo
# Method: 3.1 The potential intravenous toxicity of the test article ProGenta (in a dose equimolar to 60 mg/kg of Gentamicin, Example 1) following once daily repeated intravenous administrations during 7 days, was studied in a group of seven male and seven female Fisher 344 rats, in comparison to an identically treated and equally sized group treated with the control article Gentamicin (60 mg/kg), and an untreated control group comprising six male and six female rats. All animals received 10 mg/liter of sodium bicarbonate in drinking water. All animals were allowed an additional 3-day recovery period. Final assessment of treatment effects was based on monitoring clinical signs, determinations of body weight, serum creatinine levels and urinary protein content. In addition, all animals were subjected to necropsy at termination of the study.
# BALB/c mice = experiment: Toxicity of daily intravenous injections in BALB/c mice (proteinuria by Dipstick, mortality, gross pathology); assay type: in vivo, mouse (BALB/c); details: day 3, Gentamicin 75 mg/kg i.v. daily
# Fisher 344 rats = experiment: 7-day once daily repeated intravenous toxicity in Fisher 344 rats: clinical signs, mortality, body weight, necropsy; assay type: in vivo, rat (Fisher 344); details: i.v. once daily 7 days, ProGenta equimolar to 60 mg/kg Gentamicin or Gentamicin 60 mg/kg; particularly females; especially striking Day 10
# Method: All animals received 10 mg/liter of sodium bicarbonate in drinking water. All animals were allowed an additional 3-day recovery period. Final assessment of treatment effects was based on monitoring clinical signs, determinations of body weight, serum creatinine levels and urinary protein content. In addition, all animals were subjected to necropsy at termination of the study.
substance,measurement,setting,value
Gentamicin,LD50,mice,75 mg/kg
same,proteinuria,kidney,reached a peak value
same,urinary protein content,kidney,markedly increased
same,mortality,BALB/c mice,the two mice in the Gentamicin group died several hours after the injection
same,weight gain,Fisher 344 rats,a relative reduction in normally expected weight gain
